In patent US20040259184A1, “Fluorescent methods for the high-throughput quantification of tartrate-resistant acid phosphatase (TRAP)” (Pharmacia Corporation, priority 2003, published 2004):

How the values were obtained:
[1] = tested on: TRAP activity in RAW 264.7 monocyte-macrophage cells differentiated into OCL; assay: Fluorescent per-well TRAP activity assay in RAW cells differentiated into OCL; assay type: cell-based; conditions: for Compound amount at which decrease of TRAP fluorescence is maximal / Compound amount at which dramatic decrease of TRAP fluorescence starts / Inhibition of TRAP activity (result in words) / Effect on detection of TRAP fluorescence: day 6, FIG. 4; for Inhibition of TRAP activity (result in words): IC50's comparable to previously published data; for Effect on TRAP activity: day 6; for Effect on detection of TRAP fluorescence: up to 10.0 uM
Description: (§1) RAW (RAW 264.7 monocyte-macrophage) RAW (ATTC, Manassas, Va.) cells were maintained in culture using DMEM (Dulbecco's Modified Eagle Medium) media containing L-glutamine at 584 mg/L, 1% penicillin/streptomycin, and 10% FBS (fetal bovine serum). For osteoclast differentiation RAW cells were put down onto 96 well plates at a density of 1,000 cells per well in alpha MEM (Minimum Essential Medium) media containing L-glutamine at 292 mg/L, 1% penicillin/streptomycin, 10% FBS, soluble RANKL (PeproTech, Rocky Hill, N.J.) at 10 ng/ml, and M-CSF (Cell Sciences, Norwood, Mass.) at 25 ng/ml. All media were changed every two days. For experiments with compounds, the compounds were added at the time of plating the cells in differentiation media. Additionally compounds were replenished during every media change leading up to the day 6 termination of the experiment.
(§2) Media was removed and cells were fixed onto their plated surface with 4% formaldehyde (Sigma, Saint Louis, Mo.) in PBS (Phosphate Buffer Saline) solution for 20 minutes. After fixing, cells were permeablized in PBS with 0.1% Tween (Sigma, Saint Louis, Mo.) for 15 minutes. Cells were then incubated with 200 uM of ELF 97 phosphatase substrate (Molecular Probes, Eugene, Oreg.) for 15 minutes in a 3.4 mM acetate buffered solution (pH 5.0) containing 6.7 mM Tartrate (Sigma, Saint Louis, Mo.). These conditions (of slightly acidic pH and high concentrations of tartrate) discriminate TRAP activity from other phosphatases. Cells were then washed twice with PBS (pH 7.4). After the final wash, plates were immediately quantified for TRAP activity.
(§3) Quantification of TRAP TRAP activity per well was quantified on a SpetraFluor Plus (Tecan, Research Triangle Park, N.C.) using an excitation of 360 nm and an emission of 550 nm using the optimal gain function. For quantification of the number of OCL, PI (propidium iodide) (Sigma, Saint Louis, Mo.) at a final concentration of 10 ug/ml was added to the TRAP stained cells to nonspecifically stain the cells. After PI staining the 96 well plates were analyzed using an ArrayScanII (Cellomics, Pittsburgh, Pa.) on the Nuclear Translocation software. In this Nuclear Translocation software analysis, the cytoplasmic image area is not used while the nuclear image area is expanded to encompass the entire PI stained cellular area. Cell size selection was performed through nuclear size selection criteria within Channel 1 of the Nuclear Translocation software package. TRAP intensity selection was performed through total fluorescence intensity utilizing Channel 2.

[2] = tested on: OCL differentiated from RAW 264.7 monocyte-macrophage cells; assay: Automated OCL counting assay (size and TRAP-intensity selected cells, ArrayScan); assay type: cell-based; conditions: day 6, FIG. 5
Description: as §1, §2, §3
The determination of differentiation into OCL is typically based upon morphological criteria along with staining for TRAP. […] Therefore, basing differentiation solely upon per well TRAP activity could lead to a false positive reading. To circumvent this limitation we developed an automated approach to quantify the number of OCL based upon the size of the cells in addition to TRAP activity. Due to the limitations of the software analyses, the size of the cells were used in place of number of nuclei as a selection criteria for OCL formation. The size of the cells typically correlates with cell fusion and the number of nuclei. Also while some single nucleated cells can also be large in size, these cells typically tend not to be TRAP positive. The data capture was performed using the Cellomics ArrayScan 11, which is an automated fluorescent microscope and plate handler. The data analyses were performed by using the Cellomic's “Nuclear Translocation” imaging analysis software.

OCL formation = conditions: previously published data (Matsumoto 2000; Kumar 2001); read-out: IC50 of dose dependent inhibition of OCL formation; cited from earlier work

Compound | Compound amount at which decrease of TRAP fluorescence is maximal [1] | Compound amount at which dramatic decrease of TRAP fluorescence starts [1] | Inhibition of TRAP activity (result in words) [1] | Compound amount at which decrease in quantity of TRAP positive cells counted starts [2] | Concentration at which decrease in TRAP positive cells counted is maximal (near zero amounts) [2] | Effect on TRAP activity [1] | Effect on detection of TRAP fluorescence [1] | Effect on the number of OCL [2] | Effect on number of TRAP positive cells counted ([2]; at 10.0 uM) | IC50 (OCL formation)
C[S+]([O-])c1ccc(-c2nc(-c3ccc(F)cc3)c(-c3ccncc3)[nH]2)cc1 (stereo not drawn) [SB203580] | 10.0 µM | 1.0 µM | dose dependent inhibition of TRAP activity | 0.3 µM | 10.0 µM | – | – | – | – | –
CCc1nc(-c2ccc(OC)cc2)[nH]c1-c1ccncc1 [SB202474] | – | – | – | 0.3 µM | 10.0 µM | little effect | did not significantly inhibit | little effect | – | –
COc1cccc(-c2cc(=O)c3ccccc3o2)c1N [PD98059] | – | – | – | – | – | little effect | did not significantly inhibit | little effect | no significant decrease | –
Oc1ccc(-c2nc(-c3ccc(F)cc3)c(-c3ccncc3)[nH]2)cc1 [SB202190] | 10.0 µM | 1.0 µM | dose dependent inhibition of TRAP activity | – | – | – | – | – | – | 1 µM
